Experimental data published in ChEMBL document CHEMBL1201862, “PubChem BioAssay data set” (2004).
Activity calls are given as the source filed them. No stated cut-off is given here; in the data, actives have a measured IC50 and inactives only a lower limit.

Molecular target: Envelope glycoprotein gp160 (Human immunodeficiency virus 1, UniProt Q6QLK5)
Test: inhibitors of HIV fusion peptide binding, primary screen, biochemical, uHTS, fluorescence dequenching (AID 1986)

Chain of Envelope glycoprotein gp160 (Q6QLK5 whole entry, the tested form may be a part): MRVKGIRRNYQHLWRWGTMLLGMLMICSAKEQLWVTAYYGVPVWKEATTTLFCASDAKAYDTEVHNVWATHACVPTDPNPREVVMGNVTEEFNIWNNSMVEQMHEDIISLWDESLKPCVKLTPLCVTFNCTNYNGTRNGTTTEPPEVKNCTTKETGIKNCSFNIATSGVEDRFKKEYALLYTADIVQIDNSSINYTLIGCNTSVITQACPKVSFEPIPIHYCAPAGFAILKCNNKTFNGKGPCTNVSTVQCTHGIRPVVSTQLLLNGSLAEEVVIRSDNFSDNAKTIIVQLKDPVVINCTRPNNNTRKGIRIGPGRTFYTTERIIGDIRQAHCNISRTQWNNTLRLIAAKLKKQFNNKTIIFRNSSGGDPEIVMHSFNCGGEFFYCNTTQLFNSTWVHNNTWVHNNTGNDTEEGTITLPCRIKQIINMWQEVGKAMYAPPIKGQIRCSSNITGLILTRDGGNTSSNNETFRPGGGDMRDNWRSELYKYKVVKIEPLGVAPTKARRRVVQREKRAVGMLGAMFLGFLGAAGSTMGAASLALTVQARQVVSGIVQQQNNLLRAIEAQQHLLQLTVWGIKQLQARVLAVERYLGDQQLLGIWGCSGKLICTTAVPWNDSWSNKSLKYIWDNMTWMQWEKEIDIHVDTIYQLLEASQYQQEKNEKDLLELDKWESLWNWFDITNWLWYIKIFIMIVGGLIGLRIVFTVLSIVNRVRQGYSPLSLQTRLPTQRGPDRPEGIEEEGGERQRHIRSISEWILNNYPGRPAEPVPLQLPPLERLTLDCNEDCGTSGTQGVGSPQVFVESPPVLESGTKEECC

O=C1NN(c2ccc(Cl)c(Cl)c2)C(=O)/C1=C/c1ccc(-c2ccccc2C(=O)O)o1
IC50: 15.7 µM (active)

Cc1ccc(-n2cccc2/C=C2/C(=N)N3C(=NC2=O)SN=C3S(C)(=O)=O)cc1Cl
IC50: 6.32 µM (active)

O=C(O)c1cccc(NC(=S)N/N=C/c2ccccc2OCc2cccc(Br)c2)c1
IC50: 13.2 µM (active)

COc1cc(/C=C2\C(=N)N3N=C(S(C)(=O)=O)SC3=NC2=O)cc(OC)c1OCCOc1ccccc1C
IC50: 14.6 µM (active)
